{"source": "patent US8853248B2", "about": "“(1,2,3-triazolyl)sulfonyl derivatives” (priority 2012, dated 2014)", "key": {"[1]": {"system": "adjuvant-induced arthritis", "assay_type": "in vivo, rat (male Lewis rats)", "details": "30 mg/kg daily by intubation, 7 treatment days; day 28 minus day 21; micronized compound; standard deviation in parentheses", "procedure": "As mentioned earlier, the compounds of formula (1) and pharmaceutically acceptable salts of compounds of formula (1) are useful in the treatment or prevention of inflammations. For example, they can be used as anti-inflammatory agents in the treatment of inflammatory joint diseases, such as arthritis, and in other diseases where inflammation is the inherent cause.\nThe adjuvant was prepared by homogenizing 170 mg of heat-killed and dried mycobacterium tuberculosis (Difco) in 22.7 mL of ‘Incomplete Freund's Adjuvant’ (ICFA, Difco). Male Lewis rats with body weights of 130-150 g were injected i.d. at the base of the tail with 0.1 ml of adjuvant. The non-diseased animals received 0.1 mL of ICFA i.d. The animals were housed individually and received feed and water ad libitum. The thus-induced arthritis was allowed to develop without treatment during 21 days. On day 21 the body weight of each animal was determined. At the same time, the volumes of the two hind paws of each animal were measured by immersing the paws in an aqueous plethysmograph up to the height of the lateral malleolus. […] Paw volumes and body weight were recorded diurnally. At the end of the treatment period (day 28), body weights and volumes of the hind paws were again determined. The changes over the treatment period were calculated. […] Subsequently, the animals were sacrificed and the liver weights recorded. […]"}, "ovine COX-1": {"target": "T1, ovine COX-1 (Ovis aries, UniProt P05979)", "T1 construct": "purchased Cayman Chemicals", "T1 sequence (P05979 25-600)": "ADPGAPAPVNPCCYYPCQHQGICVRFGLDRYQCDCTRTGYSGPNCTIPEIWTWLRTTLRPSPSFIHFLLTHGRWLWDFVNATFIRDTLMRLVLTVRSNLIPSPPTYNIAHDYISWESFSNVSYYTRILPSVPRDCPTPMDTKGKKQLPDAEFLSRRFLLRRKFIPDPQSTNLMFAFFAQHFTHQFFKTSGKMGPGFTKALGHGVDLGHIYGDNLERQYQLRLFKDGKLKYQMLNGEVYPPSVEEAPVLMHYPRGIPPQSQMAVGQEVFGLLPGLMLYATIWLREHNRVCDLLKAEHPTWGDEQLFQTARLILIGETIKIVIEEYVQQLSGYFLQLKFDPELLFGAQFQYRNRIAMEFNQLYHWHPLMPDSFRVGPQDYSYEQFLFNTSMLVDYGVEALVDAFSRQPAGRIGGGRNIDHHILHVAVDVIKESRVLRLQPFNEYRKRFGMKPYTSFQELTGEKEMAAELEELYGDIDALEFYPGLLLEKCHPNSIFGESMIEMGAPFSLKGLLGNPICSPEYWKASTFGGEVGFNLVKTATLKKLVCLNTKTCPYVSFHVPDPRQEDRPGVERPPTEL", "test": "COX activity assay (Cayman colorimetric kit), COX-1", "assay_type": "biochemical", "details": "at a level of 300 μM; purified enzyme, peroxidase activity read at 590 nm", "procedure": "(§1) COX activity was measured using an assay kit obtained from Cayman Chemicals in accord with the instruction manual of the manufacturer “COX Activity Assay, Catalog No. 760151, Colorimetric Assay for the Determination of COX Activity.” The enzyme activity was determined by the peroxidase activity of cyclooxygenases on arachidonic acid and monitored colorimetrically at 590 nm by the appearance of oxidized N,N,N′,N′-tetramethyl-p-phenylenediamine. Both ovine COX-1 and human recombinant COX-2 were obtained from Cayman Chemicals."}, "human recombinant COX-2": {"target": "T2, human recombinant COX-2 (Homo sapiens, UniProt P35354)", "T2 construct": "purchased Cayman Chemicals", "T2 sequence (P35354 18-604)": "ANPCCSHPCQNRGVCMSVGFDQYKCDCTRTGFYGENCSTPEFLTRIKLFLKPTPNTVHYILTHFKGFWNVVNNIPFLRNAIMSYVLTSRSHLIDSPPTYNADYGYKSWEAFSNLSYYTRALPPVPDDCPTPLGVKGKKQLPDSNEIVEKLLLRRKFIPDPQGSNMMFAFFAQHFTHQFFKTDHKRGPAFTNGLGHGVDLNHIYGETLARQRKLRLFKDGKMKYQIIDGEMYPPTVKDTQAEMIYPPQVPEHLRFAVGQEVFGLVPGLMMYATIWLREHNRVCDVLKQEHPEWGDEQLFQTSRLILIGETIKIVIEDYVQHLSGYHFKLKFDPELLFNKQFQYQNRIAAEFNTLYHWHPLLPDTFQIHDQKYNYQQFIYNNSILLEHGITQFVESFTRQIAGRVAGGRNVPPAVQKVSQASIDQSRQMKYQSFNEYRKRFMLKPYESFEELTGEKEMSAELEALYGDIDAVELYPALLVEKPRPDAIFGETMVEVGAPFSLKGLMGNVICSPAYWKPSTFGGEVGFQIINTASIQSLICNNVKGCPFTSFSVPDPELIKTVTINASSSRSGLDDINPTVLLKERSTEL", "test": "COX activity assay (Cayman colorimetric kit), COX-2", "assay_type": "biochemical", "details": "purified enzyme, peroxidase activity read at 590 nm", "procedure": "as §1"}}}
{"compound": "CNS(=O)(=O)c1nn[nH]c1-c1cc(C(C)(C)C)c(O)c(C(C)(C)C)c1", "note": "[Compound 1i, 5-(3,5-di-tert-butyl-4-hydroxy-phenyl)-N-methyl-1H-triazole-4-sulfonamide]", "values": [{"measurement": "Volume change of left paw", "setting": "[1]", "value": "−0.73 (0.08) mL"}, {"measurement": "Volume change of right paw", "setting": "[1]", "value": "−0.63 (0.11) mL"}, {"measurement": "effect on COX-1 activity", "setting": "ovine COX-1", "value": "no effect"}, {"measurement": "IC50", "setting": "human recombinant COX-2", "value": 68, "unit": "µM"}]}
